Laboratory results taken from patent US10844032B2, “Substituted benzofuran, benzothiophene and indole Mcl-1 inhibitors” (Vanderbilt University, priority 2012, dated 2020).

biological target: recombinant Mcl-1 (residues 172-327) (Homo sapiens (Human), UniProt Q07820); assay: Bak peptide fluorescence polarization anisotropy competition assay, Mcl-1; format: binding; settings: Table 2, Ki range; FITC-Bak peptide 10 nM, Mcl-1 14 nM; read-out: Ki for inhibition of Mcl-1
Sequence (Q07820 172-327): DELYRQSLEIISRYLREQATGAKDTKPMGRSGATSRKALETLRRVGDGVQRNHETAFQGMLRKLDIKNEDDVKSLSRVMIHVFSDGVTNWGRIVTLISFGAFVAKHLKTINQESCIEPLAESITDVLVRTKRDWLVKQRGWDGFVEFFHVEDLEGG

| Ki [nM] | Compound |
| --- | --- |
| ≤ 100 | COC(=O)c1cc(S(=O)(=O)NC(=O)c2[nH]c3cc(Cl)ccc3c2CCCOc2cc(C)c(Cl)c(C)c2)oc1C [Example 264, methyl 5-(N-(6-chloro-3-(3-(4-chloro-3,5-dimethylphenoxy)propyl)-1H-indole-2-carbonyl)sulfamoyl)-2-methylfuran-3-carboxylate] |

same assay, conditions: read-out: Ki for inhibition of Mcl-1

| Compound | Ki [nM] |
| --- | --- |
| Cc1cc(OCCCc2c(C(=O)NS(=O)(=O)CCNC(=O)CCc3ccccc3)[nH]c3ccccc23)cc(C)c1Cl [Example 164, 3-(3-(4-chloro-3,5-dimethylphenoxy)propyl)-N-((2-(3-phenylpropanamido)ethyl)sulfonyl)-1H-indole-2-carboxamide] | 101 to 299 |
| Cc1cc(OCCCc2c(C(=O)NS(=O)(=O)CCNC(=O)Cc3cn(C)c4ccccc34)[nH]c3ccccc23)cc(C)c1Cl [Example 175, 3-(3-(4-chloro-3,5-dimethylphenoxy)propyl)-N-((2-(2-(1-methyl-1H-indol-3-yl)acetamido)ethyl)sulfonyl)-1H-indole-2-carboxamide] | 101 to 299 |
| Cc1cc(OCCCc2c(C(=O)NS(=O)(=O)CCNC(=O)c3ccncc3)[nH]c3ccccc23)cc(C)c1Cl [Example 153, 3-(3-(4-chloro-3,5-dimethylphenoxy)propyl)-N-((2-(isonicotinamido)ethyl)sulfonyl)-1H-indole-2-carboxamide] | 1000 to 9990 |
| Cc1cc(OCCCc2c(C(=O)NS(=O)(=O)CCNC(=O)c3cccc(Oc4ccccc4)c3)[nH]c3ccccc23)cc(C)c1Cl [Example 167, 3-(3-(4-chloro-3,5-dimethylphenoxy)propyl)-N-((2-(3-phenoxybenzamido)ethyl)sulfonyl)-1H-indole-2-carboxamide] | 101 to 299 |
| Cc1cc(OCCCc2c(C(=O)NS(C)(=O)=O)[nH]c3c(-c4c(CO)nn(C)c4C)cccc23)cc(C)c1Cl [Example 126, 3-(3-(4-chloro-3,5-dimethylphenoxy)propyl)-7-(3-(hydroxymethyl)-1,5-dimethyl-1H-pyrazol-4-yl)-N-(methylsulfonyl)-1H-indole-2-carboxamide] | 101 to 299 |
| Cc1cc(OCCCc2c(C(=O)NS(C)(=O)=O)[nH]c3cccc(C(F)(F)F)c23)cc(C)c1Cl [Example 82, 3-(3-(4-chloro-3,5-dimethylphenoxy)propyl)-N-(methylsulfonyl)-4-(trifluoromethyl)-1H-indole-2-carboxamide] | 101 to 299 |
| Cc1cc(C(=O)NCCS(=O)(=O)NC(=O)c2[nH]c3ccccc3c2CCCOc2cc(C)c(Cl)c(C)c2)c(C)o1 [Example 159, 3-(3-(4-chloro-3,5-dimethylphenoxy)propyl)-N-((2-(2,5-dimethylfuran-3-carboxamido)ethyl)sulfonyl)-1H-indole-2-carboxamide] | 101 to 299 |
| Cc1cc(OCCCc2c(C(=O)NS(=O)(=O)c3ccc(-c4ccccc4)cc3)[nH]c3ccccc23)cc(C)c1Cl [Example 139, N-([1,1′-biphenyl]-4-ylsulfonyl)-3-(3-(4-chloro-3,5-dimethylphenoxy)propyl)-1H-indole-2-carboxamide] | 301 to 500 |

Now from value to compound:

| Ki [nM] | Compound |
| --- | --- |
| 101 to 299 | Cc1cc(OCCCc2c(C(=O)NS(=O)(=O)CCNC(=O)c3cccn3Cc3ccccc3)[nH]c3cc(Cl)ccc23)cc(C)c1Cl [Example 241, N-((2-(1-benzyl-1H-pyrrole-2-carboxamido)ethyl)sulfonyl)-6-chloro-3-(3-(4-chloro-3,5-dimethylphenoxy)propyl)-1H-indole-2-carboxamide] |
| 301 to 500 | O=C(NS(=O)(=O)CCNC(=O)C1CCCCC1)c1[nH]c2cc(Cl)ccc2c1CCCOc1cccc2ccccc12 [Example 228, 6-chloro-N-((2-(cyclohexanecarboxamido)ethyl)sulfonyl)-3-(3-(naphthalen-1-yloxy)propyl)-1H-indole-2-carboxamide] |
| 301 to 500 | Cc1ccccc1Cn1cccc1C(=O)NCCS(=O)(=O)NC(=O)c1[nH]c2cc(Cl)ccc2c1CCCOc1cc(C)c(Cl)c(C)c1 [Example 244, 6-chloro-3-(3-(4-chloro-3,5-dimethylphenoxy)propyl)-N-((2-(1-(2-methylbenzyl)-1H-pyrrole-2-carboxamido)ethyl)sulfonyl)-1H-indole-2-carboxamide] |
